Measured values as given in the supplement of paper PMC10307832.

Experiments:
Assay in all cases: relative viability (nuclei count vs DMSO), 5 days (fraction); higher = more cells survive
[1] = compound: C=CC(=O)N1CCC[C@@H](n2nc(-c3ccc(Oc4ccccc4)cc3)c3c(N)ncnc32)C1 [Ibrutinib]
Procedure, shortened: (§1)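 Lung cancer cell lines received five library-drug doses (not always all listed) spaced by √10, pinned on vehicle-anchored 1536-well plates after an overnight stay at 37 °C. Five days later, with no medium change, nuclei were Hoechst-stained, imaged at 4× and counted with MetaXpress. Viability is treated-well nuclei relative to vehicle-well nuclei, as a median across plates. Passing plates had control CV below 25% and at least one doubling.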

[2] = compound: C=CCc1cccc(/C=N/NC(=O)CN2CCN(Cc3ccccc3)CC2)c1O [PAC-1]
Procedure, shortened: as §1

[3] = compound: C=CC(=O)N1CCC[C@@H](n2nc(-c3ccc(Oc4ccccc4)cc3)c3c(N)ncnc32)C1 [Ibrutinib] + Cc1cc(Nc2cc(N3CCN(C)CC3)nc(Sc3ccc(NC(=O)C4CC4)cc3)n2)n[nH]1 [Tozasertib] (partner 0.1 µM)
Procedure, shortened: (§2)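 Cells from lung cancer lines were seeded into 1536-well plates and, one day later, dosed by pin tool. Treatments were either a single drug or a fixed dose of an anchor drug with five library-drug doses (not always all listed) in √10 steps. After 5 days, nuclei were stained in a one-step fixation (final 0.05% Triton X-100, 1% formaldehyde, 1 ug/ml Hoechst) and counted on 4× images, and relative viability is the treated-to-vehicle nuclei ratio, as the median of duplicate plates.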

[4] = compound: C=CC(=O)N1CCC[C@@H](n2nc(-c3ccc(Oc4ccccc4)cc3)c3c(N)ncnc32)C1 [Ibrutinib] + O=C(c1cc(Cc2n[nH]c(=O)c3ccccc23)ccc1F)N1CCN(C(=O)C2CC2)CC1 [Olaparib] (partner 8 µM)
Procedure, shortened: as §2

Row | Cell Line | relative viability ([1]; 0.005 µM) | relative viability ([1]; 0.01581 µM) | relative viability ([1]; 0.05 µM) | relative viability ([1]; 0.1581 µM) | relative viability ([1]; 0.5 µM) | relative viability ([2]; 0.02 µM) | relative viability ([2]; 0.06325 µM) | relative viability ([2]; 0.2 µM) | relative viability ([2]; 2 µM) | relative viability ([3]; first compound 0.005 µM) | relative viability ([3]; first compound 0.05 µM) | relative viability ([3]; first compound 0.1581 µM) | relative viability ([3]; first compound 0.5 µM) | relative viability ([4]; first compound 0.005 µM) | relative viability ([4]; first compound 0.01581 µM) | relative viability ([4]; first compound 0.1581 µM) | relative viability ([4]; first compound 0.5 µM) | relative viability ([3]; first compound 0.01581 µM) | relative viability ([4]; first compound 0.05 µM)
1 | NCI-H358 | 0.637 | 0.713 | 0.611 | 0.786 | 0.47 | 0.921 | 0.848 | 0.905 | 0.789 | 0.103 | 0.0879 | 0.12 | 0.0917 | 0.469 | 0.508 | 0.747 | 0.248 |  | 
2 | NCI-H441 | 1.11 | 0.947 | 1.26 | 1.16 | 1.13 | 1.03 | 1.09 | 0.997 | 1.04 | 0.596 | 0.801 | 0.73 | 0.809 | 0.794 | 0.728 | 0.768 | 0.567 | 0.64 | 0.652
3 | NCI-H460 | 1.07 | 0.922 | 0.979 | 0.917 | 1.02 | 0.979 | 0.966 | 0.934 | 1.07 | 0.716 | 0.519 | 0.409 | 0.494 | 0.405 | 0.373 | 0.432 | 0.441 | 0.321 | 0.441
4 | NCI-H520 | 0.874 | 0.791 | 0.991 | 1 | 0.839 | 0.964 | 0.957 | 0.899 | 0.99 | 0.428 | 0.427 | 0.381 | 0.39 | 0.417 | 0.334 | 0.298 | 0.35 | 0.341 | 0.377
5 | NCI-H522 | 0.796 | 1.09 | 0.85 | 0.752 | 0.76 | 1.08 | 1.1 | 0.872 | 1.05 | 0.503 | 0.476 | 0.55 | 0.46 | 0.587 | 0.605 | 0.644 | 0.573 | 0.521 | 0.653
6 | NCI-H596 | 0.74 | 0.965 | 0.939 | 0.837 | 0.858 | 1 | 0.937 | 1.07 | 1.05 |  | 0.858 | 0.943 | 0.722 | 1.09 | 0.635 | 0.668 | 0.723 | 0.922 | 0.68
7 | NCI-H647 | 0.724 | 0.855 | 0.86 | 0.876 | 0.879 | 0.985 | 0.995 | 0.892 | 0.933 |  | 0.39 | 0.347 | 0.174 | 0.638 | 0.387 | 0.57 | 0.637 | 0.298 | 0.62
8 | NCI-H650 | 0.772 | 0.991 | 0.802 | 1.05 | 1.01 | 0.976 | 0.966 | 0.891 | 0.872 | 0.783 | 0.758 | 0.808 | 0.782 | 0.423 | 0.432 | 0.506 | 0.459 | 0.672 | 0.385
9 | NCI-H661 | 0.95 | 0.957 | 0.868 | 0.96 | 0.601 | 0.977 | 0.981 | 0.965 | 0.959 | 0.353 | 0.384 | 0.348 | 0.389 | 0.716 | 0.706 | 0.773 | 0.579 | 0.372 | 0.719
10 | NCI-H727 | 0.857 | 0.912 | 0.902 | 0.61 |  | 0.968 | 1.15 | 0.944 | 0.916 | 0.542 | 0.624 |  | 0.533 | 0.736 | 0.817 | 0.792 | 0.688 | 0.578 | 0.659
11 | NCI-H838 | 0.923 | 0.893 | 0.986 | 0.938 | 0.948 | 0.96 | 0.989 | 0.9 | 0.983 | 0.261 | 0.285 | 0.27 | 0.277 | 0.794 | 0.693 | 0.866 | 0.825 | 0.261 | 0.849
12 | NCI-H1355 |  | 0.975 | 1.02 | 0.826 | 0.843 | 0.983 | 1.02 | 0.968 | 1.06 | 0.601 | 0.517 | 0.62 | 0.491 |  | 0.664 | 0.73 | 0.661 | 0.518 | 0.77
13 | NCI-H1395 | 0.763 | 1.04 | 0.855 | 0.713 | 0.957 | 1.02 | 0.928 | 0.872 | 0.911 | 0.77 | 0.782 | 0.74 | 0.776 | 0.475 | 0.472 | 0.468 | 0.449 | 0.688 | 0.469
14 | NCI-H1437 | 0.957 | 0.975 | 0.981 | 0.974 | 1.02 | 0.988 | 1.01 | 0.96 | 0.814 | 0.437 | 0.472 | 0.403 | 0.391 | 0.681 | 0.626 | 0.641 | 0.628 | 0.373 | 0.721
15 | NCI-H1648 | 0.758 | 0.751 | 0.676 | 0.792 | 0.63 | 0.795 | 1.07 | 0.931 | 0.991 | 0.549 | 0.467 | 0.537 | 0.358 | 0.626 | 0.552 | 0.766 | 0.481 | 0.368 | 0.653
16 | NCI-H1650 | 0.793 | 0.841 | 0.76 | 0.79 | 0.706 | 0.916 | 0.916 | 0.856 | 0.81 | 0.329 | 0.4 | 0.394 | 0.302 | 0.73 | 0.836 | 0.822 | 0.754 | 0.36 | 0.805
17 | NCI-H1651 | 0.931 | 0.93 | 0.913 | 0.923 | 1.03 | 0.978 | 0.967 | 0.943 | 0.983 | 0.558 | 0.757 | 0.668 | 0.944 | 0.193 | 0.183 | 0.176 | 0.185 | 0.7 | 0.173
